From patent US8815840B2, “Carbazole and carboline kinase inhibitors” (Bristol-Myers Squibb Company, priority 2008, dated 2014)

Target: JAK2 (Homo sapiens (Human), UniProt O60674)
Test: JAK2 Tyrosine Kinase Assay
Assay type: biochemical
Settings: ATP 30 μM; JAK2 1 nM; 60 min at room temperature
Procedure: JAK2 Tyrosine Kinase Assay
The assays were performed in V-bottom 384-well plates. […] The reaction was initiated by the combination of JAK2 with substrates and test compounds. The reaction was incubated at room temperature for 60 min. and terminated by adding 45 μl of 35 mM EDTA to each sample. The reaction mixture was analyzed on the Caliper LABCHIP® 3000 by electrophoretic separation of the fluorescent substrate and phosphorylated product. […] Compounds were dissolved at 10 mM in dimethylsulfoxide (DMSO) and evaluated at eleven concentrations, each in duplicate. IC50 values were derived by non-linear regression analysis

JAK2, sequence (O60674 whole entry): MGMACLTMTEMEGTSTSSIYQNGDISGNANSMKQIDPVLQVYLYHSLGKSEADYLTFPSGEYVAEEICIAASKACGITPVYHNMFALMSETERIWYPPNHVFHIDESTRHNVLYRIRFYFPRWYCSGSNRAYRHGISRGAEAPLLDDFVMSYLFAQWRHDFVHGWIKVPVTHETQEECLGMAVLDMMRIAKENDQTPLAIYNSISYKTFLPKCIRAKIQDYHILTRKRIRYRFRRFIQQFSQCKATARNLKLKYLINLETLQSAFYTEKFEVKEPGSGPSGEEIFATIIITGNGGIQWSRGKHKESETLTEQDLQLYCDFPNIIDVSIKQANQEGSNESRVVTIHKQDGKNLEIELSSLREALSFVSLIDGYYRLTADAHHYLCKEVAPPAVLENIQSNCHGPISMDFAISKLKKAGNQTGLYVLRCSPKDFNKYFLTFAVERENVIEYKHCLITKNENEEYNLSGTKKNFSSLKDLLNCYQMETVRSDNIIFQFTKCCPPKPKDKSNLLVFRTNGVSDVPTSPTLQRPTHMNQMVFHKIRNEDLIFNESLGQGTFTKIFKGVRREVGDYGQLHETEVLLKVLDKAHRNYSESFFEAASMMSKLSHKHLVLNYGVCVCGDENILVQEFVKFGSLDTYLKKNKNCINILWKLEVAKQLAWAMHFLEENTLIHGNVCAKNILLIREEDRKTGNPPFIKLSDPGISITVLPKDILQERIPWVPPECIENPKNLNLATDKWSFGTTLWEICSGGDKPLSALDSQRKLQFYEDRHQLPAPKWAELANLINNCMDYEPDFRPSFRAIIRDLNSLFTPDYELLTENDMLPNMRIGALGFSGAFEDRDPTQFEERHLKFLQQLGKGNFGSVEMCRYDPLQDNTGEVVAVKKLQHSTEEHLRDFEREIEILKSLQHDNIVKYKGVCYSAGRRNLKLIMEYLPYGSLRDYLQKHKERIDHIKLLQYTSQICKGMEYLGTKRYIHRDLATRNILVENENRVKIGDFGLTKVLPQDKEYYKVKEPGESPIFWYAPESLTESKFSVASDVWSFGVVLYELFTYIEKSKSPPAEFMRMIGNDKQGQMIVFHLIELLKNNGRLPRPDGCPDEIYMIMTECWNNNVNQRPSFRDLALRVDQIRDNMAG

Compound	IC50
COc1ccc(-c2cc(C(N)=O)c3[nH]c4cc(N5CCN(C)CC5)ccc4c3n2)cc1F [Example 310, 2-(3-fluoro-4-methoxyphenyl)-7-(4-methylpiperazin-1-yl)-5H-pyrido[3,2-b]indole-4-carboxamide]	1 nM
NC(=O)c1cc(-c2cccc(C(F)(F)F)c2)nc2c1[nH]c1cc(N3CCNCC3)ccc12 [Example 316, 7-(Piperazin-1-yl)-2-(3-(trifluoromethyl)phenyl)-5H-pyrido[3,2-b]indole-4-carboxamide]	6 nM
NC(=O)c1cc(-c2ccc(CN3CCOCC3)cc2)nc2c1[nH]c1cc(N3CCS(=O)(=O)CC3)ccc12 [Example 323, 7-(1,1-Dioxido-4-thiomorpholinyl)-2-(4-(4-morpholinylmethyl)phenyl)-5H-pyrido[3,2-b]indole-4-carboxamide]	1 nM
NC(=O)c1cc(-c2ccc(CN3CCOCC3)s2)nc2c1[nH]c1cc(N3CCOCC3=O)ccc12 [Example 324, 2-(5-(Morpholinomethyl)thiophen-2-yl)-7-(3-oxomorpholino)-5H-pyrido[3,2-b]indole-4-carboxamide]	1 nM
COc1ccc(-c2cc(C(N)=O)c3[nH]c4cc(N5CCOCC5)ccc4c3n2)cc1F [Example 344, 2-(3-fluoro-4-methoxyphenyl)-7-morpholino-5H-pyrido[3,2-b] indole-4-carboxamide]	1 nM
NC(=O)c1cc(-c2ccc(CN3CCOCC3)s2)nc2c1[nH]c1cc(N3CCOCC3)ccc12 [Example 345, 7-morpholino-2-(5-(morpholinomethyl)thiophen-2-yl)-5H-pyrido[3,2-b] indole-4-carboxamide]	1 nM
NC(=O)c1cc(-c2ccc(OCCN3CCOCC3)c(Cl)c2)nc2c1[nH]c1cc(N3CCOCC3)ccc12 [Example 353, 2-(3-Chloro-4-(2-morpholinoethoxy)phenyl)-7-morpholino-5H-pyrido[3 ,2-b]indole-4-carboxamide]	1 nM
COCCOc1ccc(-c2cc(C(N)=O)c3[nH]c4cc(N5CCOCC5)ccc4c3n2)cc1Cl [Example 357, 2-(3-chloro-4-(2-methoxyethoxy)phenyl)-7-morpholino-5H-pyrido[3,2-b]indole-4-carboxamide]	6 nM
NC(=O)c1cc(-c2ccc(OC3CCNCC3)c(Cl)c2)nc2c1[nH]c1cc(N3CCOCC3)ccc12 [Example 360, 2-(3-chloro-4-(piperidin-4-yloxy)phenyl)-7-morpholino-5H-pyrido[3,2-b]indole-4-carboxamide]	7 nM
COCCN1CCN(Cc2ccc(-c3cc(C(N)=O)c4[nH]c5cc(N6CCOCC6)ccc5c4n3)s2)CC1 [Example 373, 2-(5-((4-(2-methoxyethyl)piperazin-1-yl)methyl)thiophen-2-yl)-7-morpholino-5H-pyrido[3,2-b]indole-4-carboxamide]	6 nM
NC(=O)c1cc(-c2cc(CN3CCOCC3)co2)nc2c1[nH]c1cc(N3CCOCC3)ccc12 [Example 374, 7-morpholino-2-(4-(mor-pholinomethyl)furan-2-yl)-5H-pyrido[3,2-b]indole-4-carboxamide]	6 nM
COc1ccc(-c2cc(C(N)=O)c3[nH]c4cc(C(=O)O)ccc4c3c2)cc1F [Example 395, 8-Carbamoyl-6-(3-fluoro-4-methoxyphenyl)-9H-carbazole-2-carboxylate]	111 nM
NC(=O)c1cc(N2CCOCC2)nc2c1[nH]c1cc(C(=O)N3CCOCC3)ccc12 [Example 403, 7-(morpholine-4-carbonyl)-2-morpholino-5H-pyrido[3,2-b]indole-4-carboxamide]	142 nM
NC(=O)c1cc(N2CCC(N)CC2)nc2c1[nH]c1cc(C(=O)N3CCOCC3)ccc12 [Example 405, 2-(4-aminopiperidin-1-yl)-7-(morpholine-4-carbonyl)-5H-pyrido[3,2-b]indole-4-carboxamide]	636 nM
Cc1ccc(-c2cc(C(N)=O)c3[nH]c4ccc(C(=O)O)cc4c3c2)c(F)c1 [Example 424, 8-Carbamoyl-6-(2-fluoro-4-methylphenyl)-9H-carbazole-3-carboxylic acid]	1 nM
NC(=O)c1cc(-c2ncccn2)cc2c1[nH]c1cc(C(=O)N3CCOCC3)ccc12 [Example 430, 7-(Morpholine-4-carbonyl)-3-(pyrimidin-2-yl)-9H-carbazole-1-carboxamide]	1 nM
Cn1ccc2cc(-c3cc(C(N)=O)c4[nH]c5cc(C(=O)N6CCOCC6)ccc5c4n3)ccc21 [Example 448, 2-(1-methyl-1H-indol-5-yl)-7-(morpholine-4-carbonyl)-5H-pyrido[3,2-b]indole-4-carboxamide]	1 nM
Cn1ncc2ccc(-c3cc(C(N)=O)c4[nH]c5cc(C(=O)N6CCOCC6)ccc5c4n3)cc21 [Example 454, 2-(1-methyl-1H-indazol-6-yl)-7-(morpholine-4-carbonyl)-5H-pyrido[3,2-b]indole-4-carboxamide]	7 nM

Compound	IC50
NC(=O)c1cc(-c2ccc3scnc3c2)nc2c1[nH]c1cc(C(=O)N3CCOCC3)ccc12 [Example 456, 2-(benzo[d]thiazol-5-yl)-7-(morpholine-4-carbonyl)-5H-pyrido[3,2-b]indole-4-carboxamide]	1 nM
Cc1noc(C)c1-c1cc(C(N)=O)c2[nH]c3cc(C(=O)N4CCOCC4)ccc3c2n1 [Example 461, 2-(3,5-dimethylisoxazol-4-yl)-7-(morpholine-4-carbonyl)-5H-pyrido[3,2-b]indole-4-carboxamide]	146 nM
NC(=O)c1cc(-c2cnoc2)nc2c1[nH]c1cc(C(=O)N3CCOCC3)ccc12 [Example 462, 2-(isoxazol-4-yl)-7-(morpholine-4-carbonyl)-5H-pyrido[3,2-b]indole-4-carboxamide]	112 nM
Cn1nc(C(F)(F)F)cc1-c1cc(C(N)=O)c2[nH]c3cc(C(=O)N4CCOCC4)ccc3c2n1 [Example 464, 2-(1-methyl-3-(trifluoromethyl)-1H-pyrazol-5-yl)-7-(morpholine-4-carbonyl)-5H-pyrido[3,2-b]indole-4-carboxamide]	314 nM
CN1CCN(c2ccc(-c3cc(C(N)=O)c4[nH]c5cc(C(=O)N6CCOCC6)ccc5c4n3)cc2)CC1 [Example 468, 2-(4-(4-methylpiperazin-1-yl)phenyl)-7-(morpholine-4-carbonyl)-5H-pyrido[3,2-b]indole-4-carboxamide]	6 nM
NC(=O)c1nc(-c2ccccc2)cc2c1[nH]c1cc(C(=O)N3CCOCC3)ccc12 [Example 469, 7-(Morpholine-4-carbonyl)-3-phenyl-9H-pyrido[3,4-b]indole-1-carboxamide]	11 nM
Cc1cccc(-c2cc(C(N)=O)c3[nH]c4cc(N5CCN(Cc6ccccc6)CC5)ccc4c3c2)c1 [Example 479, 7-(4-Benzylpiperazin-1-yl)-3-m-tolyl-9H-carbazole-1-carboxamide]	123 nM
NC(=O)c1cc(-c2ccc(CN3CCOCC3)c(Cl)c2)cc2c1[nH]c1cc(-c3cccnc3)ccc12 [Example 481, 3-(3-Chloro-4-(morpholinomethyl)phenyl)-7-(pyridin-3-yl)-9H-carbazole-1-carboxamide]	133 nM
NC(=O)c1cc(-c2ccc(CN3CCOCC3)c(Cl)c2)cc2c1[nH]c1cc(-c3ccc(N4CCOCC4)nc3)ccc12 [Example 482, 3-(3-Chloro-4-(morpholinomethyl)phenyl)-7-(6-morpholinopyridin-3-yl)-9H-carbazole-1-carboxamide]	917 nM
Cc1cc(-c2cc(C(N)=O)c3[nH]c4cc(C5CCN(C(=O)OC(C)(C)C)CC5)ccc4c3c2)ccc1CN1CCOCC1 [Example 486, tert-Butyl 4-(8-carbamoyl-6-(3-methyl-4-(morpholinomethyl)phenyl)-9H-carbazol-2-yl)piperidine-1-carboxylate]	818 nM
NC(=O)c1cc(-c2ccc(C3CC3)nc2)nc2c1[nH]c1cc(N3CCOCC3)ccc12 [Example 499, 2-(6-cyclopropylpyridin-3-yl)-7-morpholino-5H-pyrido[3,2-b]indole-4-carboxamide]	1 nM
NC(=O)c1cc(-c2ccc(CO)nc2)nc2c1[nH]c1cc(N3CCOCC3)ccc12 [Example 500, 2-(6-(hydroxymethyl)pyridin-3-yl)-7-morpholino-5H-pyrido[3,2-b]indole-4-carboxamide]	6 nM
Cc1cc(-c2cc(C(N)=O)c3[nH]c4cc(N5CCOCC5)ccc4c3n2)ccc1Cl [Example 501, 2-(4-chloro-3-methylphenyl)-7-morpholino-5H-pyrido[3,2-b]indole-4-carboxamide]	7 nM
CN(C)c1ccc(-c2cc(C(N)=O)c3[nH]c4cc(N5CCOCC5)ccc4c3n2)cn1 [Example 503, 2-(6-(dimethylamino)pyridin-3-yl)-7-morpholino-5H-pyrido[3,2-b]indole-4-carboxamide]	1 nM
NC(=O)c1cc(-c2ccc(N3CCOCC3)nc2)nc2c1[nH]c1cc(N3CCOCC3)ccc12 [Example 504, 7-morpholino-2-(6-morpholinopyridin-3-yl)-5H-pyrido[3,2-b]indole-4-carboxamide]	1 nM
NC(=O)c1cc(-c2ccc(F)c(Cl)c2)cc2c1[nH]c1cc(C(=O)N3CCOCC3)ccc12 [Example 545, 3-(3-Chloro-4-fluorophenyl)-7-(morpholine-4-carbonyl)-9H-carbazole-1-carboxamide]	885 nM
CN(C)C(=O)c1ccc(-c2cc(C(N)=O)c3[nH]c4cc(C(=O)N5CCOCC5)ccc4c3c2)cc1 [Example 558, 3-(4-(dimethylcarbamoyl)phenyl)-7-(4-morpholinylcarbonyl)-9H-carbazole-1-carboxamide]	286 nM
N#Cc1cc(-c2cc(C(N)=O)c3[nH]c4cc(C(=O)N5CCOCC5)ccc4c3c2)ccc1F [Example 563, 3-(3-cyano-4-fluorophenyl)-7-(4-morpholinylcarbonyl)-9H-carbazole-1-carboxamide]	1010 nM
